Data reported in patent US20030113267A1, “Colon contrast enhanced imaging” (priority 1999, published 2003).

Legend:
[1] = in man; cited from earlier work
[2] = 3D angiographic MRI colonography in healthy volunteers after intravenous injection; assay type: in vivo, human
Description: Description of method of acquisition of MRI images of the luminal part of the colon using the three-dimensional angiography technique in healthy volunteers after intravenous injection of MultiHance™ (Gd-BOPTA meglumine salt).
A three-dimensional angiographic imaging technique was used because it provides advantageous visualisation of large regions of the anatomy, especially when associated with administration of contrast agents which are particularly effective in reducing the T1 relaxation times in standard MRI investigations.
In the trial conducted, the increased contrast in the hepatobiliary system and the gastrointestinal system was obtained with this kind of diagnostic technique, which produced up to 42 images of a three-dimensional volume measuring 40×32×12 cm in a single breath-hold.
(§1) The trial was conducted in six healthy volunteers aged between 22 and 29 years. The contrast agent used was Gd-BOPTA meglumine salt (MultiHance™), administered intravenously at a dose of 0.1 mmol/kg of body weight. The successive recording of images of the abdomen was performed 1, 12, 24, 36, 48, 70 and 105 hours after administration of the agent using the following 3D angio-sequence: 3D FLASH; TR 4.6 ms; TE 1.8 ms; α 50° C.; rect. FOV 390 mm (6/8); Ma: 215×512; acq 28 s; slab thickness 120 mm; 42 sections. Three volunteers were re-tested 14 days after administration of the agent.
(§2) T1-weighted axial images of the liver and abdomen were recorded in addition to the 3D angio-sequences referred to above.
(§3) The visualisation procedure was conducted with an MRI scanner operating at 1.5 Tesla (Magneton Vision Plus, Siemens Medical Systems, Erlangen, Germany) equipped with a phased array body coil.
The images were processed with standard MIP software on a dedicated 3D MR workstation (Virtuoso, Siemens Medical System).
No preparation, medication or joint administration of other drugs or other contrast media was performed on the volunteers studied.

[3] = cited from earlier work
[4] = MRI signal intensity over time in liver parenchyma, healthy volunteers; assay type: in vivo, human; conditions: average of six healthy volunteers, 0.1 mmol/kg i.v., FIG. 1
Description: as §1, §2, §3
(§4) Before performing colonography, it was possible to investigate liver function by recording the signal intensity in the liver parenchyma and gall bladder in the first few hours after administration of the contrast agent. […] This seems to be the ideal period for recording three-dimensional MRI colonography.

[5] = MRI signal intensity over time in gall bladder, healthy volunteers; assay type: in vivo, human
Description: as §1, §2, §3, §4

time for signal intensity to be halved in liver parenchyma [4]: ≤ 10 h
half-life of signal intensity in gall bladder ([5]; average of six healthy volunteers, 0.1 mmol/kg i.v., FIG. 1): 15 h
Compound: CNC[C@H](O)[C@@H](O)[C@H](O)[C@H](O)CO.CNC[C@H](O)[C@@H](O)[C@H](O)[C@H](O)CO.O=C([O-])CN(CCN(CC(=O)[O-])CC(=O)O)CCN(CC(=O)O)C(COCc1ccccc1)C(=O)[O-].[Gd+3] (centres unmarked) [MultiHance, gadobenate dimeglumine]
proportion excreted by the biliary route [1]: 2-4%
time after which a partial increase of intraluminal signal was still detectable ([2]; 0.1 mmol/kg i.v.): 8 days
homogeneity of contrast in the lumen ([2]; 0.1 mmol/kg i.v., faeces present, no preparation): homogenous contrast in the lumen
signal in the colon, 3D MR colonography ([2]; 24 hours after injection of 0.1 mmol/kg BW, no bowel preparation, FIG. 2): Homogenous signal can be seen in all segments of the colon
time to intense increase in intraluminal contrast after administration ([2]; all six healthy volunteers, 0.1 mmol/kg i.v., no bowel preparation): ≤ 24 h
time after administration at which an intense intraluminal signal was still detected in the colon ([2]; in some patients, 0.1 mmol/kg i.v.): ≤ 100 h
intraluminal contrast after intravenous administration ([2]; intravenous administration, contrast recorded in the colon): substantial increase in intraluminal contrast
solubility in water [3]: soluble in water
enhancement within the gallbladder ([5]; 24 hours after injection of 0.1 mmol/kg BW, FIG. 2): still intense enhancement
